# “And” between values parts separate entries of the source, which are not always exact repeats. Equal entries are not always repeated. Where two headings read alike, the source gives them in different places.
# Test: Total and unbound QST in tumor and contralateral brain at survival end point, orthotopic GB126 PDX
# Format: in vivo
# Conditions: for UNBOUND [QST], Brain / UNBOUND [QST], Plasma / UNBOUND [QST], Tumor: individual mice; for concentration at 3 h: athymic nude, mouse
# Description: All mice included in the survival study were processed for end-point PK and PD analyses once moribund. Plasma, tumor, and contralateral brain tissues were harvested 3 hours after dosing with 10 mg/kg QST, allowing for direct comparison of long-term treatment with the PK-PD data collected from acute (1-week) treatment with QST or combination therapy (Figure 8A). […] There were no significant differences in total or unbound drug concentrations in tumor or brain tissue between the monotherapy or combination therapy cohorts (Figure 8, E and F). Immunoblot analysis of dissected tumor samples confirmed that QST induced substantial histone H3 hyperacetylation in brain tumors, compared with untreated animals, consistent with an in vivo on-target effect (Figure 9, A and B).
# QST concentrations in specimens were measured using reverse-phase LC on the AB SCIEX QTRAP6500+ LC-MS/MS system by operating electrospray in the positive ion mode. For liquid chromatographic separation, gradient elution was performed using a Phenomenex Kinetex F5 100 Å column (100 × 2.1 mm, 2.6 μm). The initial composition of the mobile phase was 70% phase A (0.1% formic acid in water) and 30% phase B (0.1% formic acid in 1:1 acetonitrile/methanol) with a 0.35 mL/min flow rate. Gradient elution was achieved as follows: mobile phase (B) was maintained at 30% from 0 to 0.3 minutes, increased to 95% from 0.3 to 0.8 minutes, maintained at 95% from 0.8 to 2.5 minutes, and decreased to 30% from 2.5 to 2.8 minutes. The total run time was 3.5 minutes. The internal standard used in this study was D8-infigratinib. The retention times for QST and D8-infigratinib were 1.6 and 1.8 minutes, respectively. Mass-to-charge ratio transitions were as follows: 395.20 → 144.00 (QST) and 568.08 → 321.00 (D8-infigratinib). LC-MS/MS analysis was performed using an Analyst 1.7 Chromatographic Data System. See Supplemental Methods for detailed PK experiments.
# Gy on MWF for a total of 6 Gy in the first week of treatment. Treatment groups included vehicle (50% PEG-3000), QST (10 mg/kg) alone, 6 Gy whole-brain IR treatment with vehicle, and 6 Gy whole-brain IR treatment with 10 mg/kg QST. QST was administered to mice through intraperitoneal injections two hours prior to whole-brain radiation treatment. Upon completion of the radiation regimen, IR-treated mice subsequently received QST or vehicle alone for the rest of the experiment. Tumor growth and treatment response was monitored by IVIS bioluminescence […]
# once per week. […]
# Tissue from the hemisphere contralateral to the tumor was also collected as a normal brain/nontumor reference sample. For PK analyses, the mice were anesthetized with isoflurane, and at least 300 μL of blood was drawn from the right ventricle of the heart. The blood was collected in tubes containing 10 μL of 0.1 M KOH in EDTA to prevent blood coagulation. Blood samples were immediately centrifuged at 3000 rpm for 10 minutes at 4 °C to allow separation of plasma. After collection of the blood, the tumor was dissected out of the brain and flash -frozen.
# Both plasma and erythrocytes were flash-frozen for subsequent analysis. […]
# vortex-mixed for 10 s and centrifuged at 12000 g at 4 °C for 10 min. A 100-µL aliquot of the supernatant was transferred to an autosampler vial, and 5 µL was injected into the LC-MS/MS system for analysis. Whenever necessary, appropriate dilutions were made to accommodate the analysis of small volume samples.
# Brain and Brain Tumor Sample Preparation
# Normal brain and brain tumor tissue homogenates were prepared by 1:4 (mass/volume) ratio with PBS. Samples were homogenized under 6.00 m/s speed for 40 seconds with 3 cycles by Bead Ruptor Elite homogenizer (Omni International). Plasma was used as a surrogate matrix for brain/tumor homogenate. Brain homogenate samples from in vivo studies were prepared as described for plasma samples. Analyte and IS were extracted by protein precipitation with methanol containing IS. After centrifugation at 12000 rpm for 10 minutes at 4 °C, 5 µL of […]
smiles,measurement,setting,value
"Cn1cc(CNCC2CCN(c3ncc(C(=O)NO)cn3)CC2)c2ccccc21 [QST, quisinostat]","UNBOUND [QST], Brain",Combination (QST + IR) cohort,3.62 nM and 1.48 nM and 2.18 nM
same,"UNBOUND [QST], Plasma",Combination (QST + IR) cohort,158.39 nM and 19.58 nM and 43.86 nM
same,"UNBOUND [QST], Tumor",Combination (QST + IR) cohort,66.7 nM and 35.51 nM and 128.5 nM and 21.89 nM and 23.43 nM
same,"UNBOUND [QST], Brain",QST cohort,1.049 nM and 4.404 nM and 6.584 nM and 1.529 nM
same,"UNBOUND [QST], Plasma",QST cohort,35.734 nM and 100.413 nM and 74.395 nM and 209.24 nM
same,"UNBOUND [QST], Tumor",QST cohort,93.34 nM and 77.02 nM and 33.36 nM and 81.88 nM
same,concentration at 3 h,"brain (contralateral to tumor), intraperitoneal, 10 mg/kg, Combo cohort, mean, read-out: Total QST, Brain, Mean",48.5 nM
same,concentration at 3 h,"brain (contralateral to tumor), intraperitoneal, 10 mg/kg, Combo cohort, mean, read-out: Unbound QST, Brain, Mean",2.42 nM
same,concentration at 3 h,"brain (contralateral to tumor), intraperitoneal, 10 mg/kg, QST cohort, mean, read-out: Total QST, Brain, Mean",67.8 nM
same,concentration at 3 h,"brain (contralateral to tumor), intraperitoneal, 10 mg/kg, QST cohort, mean, read-out: Unbound QST, Brain, Mean",3.39 nM
same,concentration at 3 h,"in vivo, orthotopic GB126, end point (moribund), 3 hours after 10 mg/kg, read-out: unbound QST in tumors, mean",71.4 nM
same,concentration at 3 h,"peritumoral (contralateral) brain tissue, intraperitoneal, 10 mg/kg, orthotopic GB126, end point (moribund), 3 hours after 10 mg/kg, read-out: unbound QST in peritumoral brain tissue, mean",3.4 nM
same,concentration at 3 h,"plasma, intraperitoneal, 10 mg/kg, Combo cohort, mean, read-out: Total QST, Plasma, Mean",141 nM
same,concentration at 3 h,"plasma, intraperitoneal, 10 mg/kg, Combo cohort, mean, read-out: Unbound QST, Plasma, Mean",55.7 nM
same,concentration at 3 h,"plasma, intraperitoneal, 10 mg/kg, QST cohort, mean, read-out: Total QST, Plasma, Mean",265 nM
same,concentration at 3 h,"plasma, intraperitoneal, 10 mg/kg, QST cohort, mean, read-out: Unbound QST, Plasma, Mean",105 nM
same,concentration at 3 h,"tumor, intraperitoneal, 10 mg/kg, Combo cohort, mean, read-out: Total QST, Tumor, Mean",1100 nM
same,concentration at 3 h,"tumor, intraperitoneal, 10 mg/kg, Combo cohort, mean, read-out: Unbound QST, Tumor, Mean",55.2 nM
same,concentration at 3 h,"tumor, intraperitoneal, 10 mg/kg, QST cohort, mean, read-out: Total QST, Tumor, Mean",1430 nM
same,concentration at 3 h,"tumor, intraperitoneal, 10 mg/kg, QST cohort, mean, read-out: Unbound QST, Tumor, Mean",71.4 nM
